Source: patent US9273095B2, “Antibiotic peptide and preparation method therefor and application therefor” (priority 2011, dated 2016)
Values after ≈ are worked out from the molar mass of the structure shown. Like-named read-outs stand apart in the source and are kept apart here. Non-standard residues stand in square brackets, D forms with d. Residues, ends and D or L forms follow the SMILES beside them.

Key:
[1] = system: Acinetobacter calcoaceticus; experiment: microbe, parasite or virus in culture; assay type: cell-based
Method: (§1) The experimental strains are 37 standard strains preserved in lab and clinical isolated bacteria, including drug-resistant bacteria and quality-control bacteria selecting Staphylococcus aureus ATCC29213, Enterococcus faecalis ATCC29212, Escherichia coli ATCC25922, Pseudomonas aeruginosa ATCC27853 and klebsiella pneumoniae ATCC700603.
(§2) (1) Sensitivity test is conducted with two-fold agar dilution method and Denlay multipoint inoculator. Test bacteria are cultured with nutrient broth and brain heart infusion.
(§3) (2) The drug is double diluted into different concentration with MH broth after dissolved and then placed in the plate respectively.
(§4) (3) After dissolved, MH agar culture medium are injected into the plate with drug quantitatively and mixed to make the final concentration of drug are 0.03, 0.06, 0.125, . . . , 128 μg/ml respectively.
(§5) (4) After solidification of the culture medium in the plate, test bacteria (10^4CFU/point) are inoculated by multipoint inoculator and cultured for 18 hours at constant 35° C. Then observe the results.

Enterobacter aerogenes = experiment: microbe, parasite or virus in culture; assay type: cell-based
Method: as §1, §2, §3, §4, §5

Enterobacter cloacae = experiment: microbe, parasite or virus in culture; assay type: cell-based
Method: as §1, §2, §3, §4, §5

Escherichia coli = experiment: microbe, parasite or virus in culture; assay type: cell-based
Method: as §1, §2, §3, §4, §5

Feilaoti citrobacter = experiment: microbe, parasite or virus in culture; assay type: cell-based
Method: as §1, §2, §3, §4, §5

Proteus vulgaris = experiment: microbe, parasite or virus in culture; assay type: cell-based
Method: as §1, §2, §3, §4, §5

Pseudomonas aeruginosa = experiment: microbe, parasite or virus in culture; assay type: cell-based
Method: as §1, §2, §3, §4, §5

Salmonella typhimurium = experiment: microbe, parasite or virus in culture; assay type: cell-based
Method: as §1, §2, §3, §4, §5

Serratia marcescens = experiment: microbe, parasite or virus in culture; assay type: cell-based
Method: as §1, §2, §3, §4, §5

Shigella flexneri = experiment: microbe, parasite or virus in culture; assay type: cell-based
Method: as §1, §2, §3, §4, §5

Shigella sonnei = experiment: microbe, parasite or virus in culture; assay type: cell-based; conditions: Shigella sonnei strains 51592
Method: as §1, §2, §3, §4, §5

Staphylococcus aureus = experiment: microbe, parasite or virus in culture; assay type: cell-based
Method: as §1, §2, §3, §4, §5

[2] = system: Staphylococcus epidermidis; experiment: microbe, parasite or virus in culture; assay type: cell-based
Method: as §1, §2, §3, §4, §5

Typhoid bacillus H901 = experiment: microbe, parasite or virus in culture; assay type: cell-based
Method: as §1, §2, §3, §4, §5

Enterococcus faecium = experiment: microbe, parasite or virus in culture; assay type: cell-based
Method: as §1, §2, §3, §5

[3] = Circular dichroism (CD) spectroscopy, helical structure; assay type: physicochemical; conditions: for 50% TFE % helix / Benign buffer % helix: relative to ellipticity (100%) of reference peptide in 50% TFE; for Benign buffer [θ]222: 100 mM KCl, 50 mM PO4, pH 7.0
Method: The mean residue molar ellipticities of peptides are determined by circular dichroism (CD) spectroscopy, using a Jasco J-720 spectropolarimeter (Jasco, Easton, Md.), at 25° C. under benign conditions (50 mM KH2PO4/K2HPO4/100 mM KCl, pH7), as well as in the presence of an α-helix inducing solvent, 2,2,2-trifluoroethanol (TFE) (50 mM KH2PO4/K2HPO4/100 mM KCL, pH 7 buffer/50% TFE). A 10-fold dilution of a 500 μM stock solution of the peptide is loaded into a 0.02 cm fused silica cell and its mean residue molar ellipticity scanned from 190 to 250 nm. The values of mean residue molar ellipticities of the peptide at a wavelength of 222 nm are used to estimate the relative amount of α-helicity of the peptides.
To determine the secondary structure of peptides in different environments, circular dichroism (CD) spectra of the peptide analogs are measured under physiologically related pH and ionic strength (100 mM KCl, 50 mM aq. PO4, pH 7 referred to as benign conditions) and also in 50% TFE to mimic the hydrophobic environment of the membrane. CD spectra of the peptide analogs are measured under benign conditions (100 mM KCl, 50 mM KH2PO4/K2HPO4, pH 7, referred to as KP buffer) and also in 50% trifluoroethanol (TFE) to mimic the hydrophobic environment of the membrane. […] However, in the presence of 50% TFE, all three L-peptides are fully folded α-helical structures with similar molar ellipticities and helicity.
FIG. 2 illustrates graphical results of Circular dichroism (CD) spectra of peptides at pH 7.4 and 25° C., in 50 mM aq. PO4 containing 100 mM KCl, wherein KP buffer (50 mM KH2PO4, K2HPO4, 100 mM KCl, pH 7.4) mimics hydrophilic environment and KP buffer-TFE (1:1 [vol/vol]) mimics hydrophobic environment of cell membrane. The figure above represents the CD spectra of peptides in benign buffer without TFE, whilst the figure below represents CD spectra obtained in the presence of 50% TFE.

aspergillus flavous = experiment: microbe, parasite or virus in culture; assay type: cell-based
Method in brief: (§6)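 Broth dilution in RPMI-1640 with PL-13 peptide diluted 10-fold from stock; inoculum 1-3×10^3 CFU/ml in the test. Strains activated at 60% humidity, 25 °C for aspergillus or 37 °C for candida; living and blank control wells included.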

aspergillus fumigatus = experiment: microbe, parasite or virus in culture; assay type: cell-based
Method in brief: as §6

candida albicans = experiment: microbe, parasite or virus in culture; assay type: cell-based
Method in brief: as §6

candida glabrata = experiment: microbe, parasite or virus in culture; assay type: cell-based
Method in brief: as §6

candida tropicalis = experiment: microbe, parasite or virus in culture; assay type: cell-based
Method in brief: as §6

[4] = 08-49(MSSA) Meticillin susceptible staphylococcus aureus
[5] = 08-52(MRSA) Methicillin-resistant staphylococcus aureus
[6] = mean residue molar ellipticity at 222 nm, 25° C.
[7] = 06-12 (VREF) Vancomycin-resistant enterococci

## C[C@H]1COc2c(N3CCN(C)CC3)c(F)cc3c(=O)c(C(=O)O)cn1c23 [Levofloxacin, levofloxacin, reference compound]
[1]; Acinetobacter calcoaceticus, Acinetobacter calcoaceticus25001
  MIC: 0.1 µM (≈ 0.0361 µg/mL)
Enterobacter aerogenes; Klebsiella aerogenes, Enterobacter aerogenes 45102
  MIC: < 0.02 µM
Enterobacter cloacae; Enterobacter cloacae 45301
  MIC: 0.1 µM (≈ 0.0361 µg/mL)
Escherichia coli; Escherichia coli, 08-5 (ESBLs) Extended Spectyumβ-lactamase
  MIC: 76.9 µM (≈ 27.8 µg/mL)
Escherichia coli; Escherichia coli, 272(TEM-88)
  MIC: < 0.7 µM
Escherichia coli; Escherichia coli, 274 (TEM-15)
  MIC: 0.2 µM (≈ 0.0723 µg/mL)
Escherichia coli; Escherichia coli, 276 (TEM-52)
  MIC: < 0.2 µM
Escherichia coli; Escherichia coli, ATCC25922, Escherichia coli ATCC 25922
  MIC: 0.14 µM (≈ 0.0506 µg/mL)
Escherichia coli; Escherichia coli, strain 26 (listed under Escherichia coli)
  MIC: < 0.7 µM
Feilaoti citrobacter; Feilaoti citrobacter 48001
  MIC: 0.1 µM (≈ 0.0361 µg/mL)
Proteus vulgaris; Proteus vulgaris 56
  MIC: < 0.007 µM
Pseudomonas aeruginosa; Pseudomonas aeruginosa, Pseudomonas aeruginosa TCC27853
  MIC: 1.2 µM (≈ 0.434 µg/mL)
Pseudomonas aeruginosa; Pseudomonas aeruginosa, strain 17 (listed under Pseudomonas aeruginosa)
  MIC: 0.7 µM (≈ 0.253 µg/mL)
Salmonella typhimurium; Salmonella enterica, Salmonella typhimurium
  MIC: < 0.02 µM
Serratia marcescens; Serratia marcescens 41002
  MIC: 0.1 µM (≈ 0.0361 µg/mL)
Shigella flexneri
  MIC: 0.1 µM (≈ 0.0361 µg/mL)
Shigella sonnei
  MIC: 0.1 µM (≈ 0.0361 µg/mL)
Staphylococcus aureus; [4]
  MIC: 0.3 µM (≈ 0.108 µg/mL)
Staphylococcus aureus; [5]
  MIC: 76.9 µM (≈ 27.8 µg/mL)
Staphylococcus aureus; Staphylococcus aureus ATCC25923
  MIC: 0.3 µM (≈ 0.108 µg/mL)
Staphylococcus aureus; Staphylococcus aureus ATCC29213
  MIC: 0.6 µM (≈ 0.217 µg/mL)
Staphylococcus aureus; strain 15 (listed under Staphylococcus aureus)
  MIC: 0.3 µM (≈ 0.108 µg/mL)
[2]; 08-17 (MSSE) Meticillin susceptible staphylococcus epidermidis
  MIC: 1.2 µM (≈ 0.434 µg/mL)
[2]; 08-18 (MRSE) Methicillin-resistant staphylococcus epidermidis
  MIC: 55.5 µM (≈ 20.1 µg/mL)
[2]; ATCC 12228 / MRSE, (MRSE) Methicillin-resistant Staphylococcus epidermidis ATCC12228
  MIC: 0.3 µM (≈ 0.108 µg/mL)
Typhoid bacillus H901
  MIC: < 0.02 µM
Enterococcus faecium; Enterococcus faecium 06-1
  MIC: 2.40 µM (≈ 0.867 µg/mL)
Enterococcus faecium; Enterococcus faecium, 06-12 (VREF) Vancomycin-resistant enterococci
  MIC: 2.4 µM (≈ 0.867 µg/mL)

## CC(=O)N[C@H](Cc1ccccc1)C(=O)N[C@H](CCCCN)C(=O)N[C@H](CCCCN)C(=O)N[C@H](CC(C)C)C(=O)N[C@H](CCCCN)C(=O)N[C@H](CCCCN)C(=O)N[C@H](CC(C)C)C(=O)N[C@H](Cc1ccccc1)C(=O)N[C@H](CO)C(=O)N[C@H](CCCCN)C(=O)N[C@H](CC(C)C)C(=O)N[C@H](Cc1c[nH]c2ccccc12)C(=O)N[C@H](CC(N)=O)C(=O)N[C@H](Cc1c[nH]c2ccccc12)C(=O)N[C@H](CCCCN)C(N)=O [PL-18] (Ac-[dF][dK][dK][dL][dK][dK][dL][dF][dS][dK][dL][dW][dN][dW][dK]-NH2)
[3]
  50% TFE % helix: 80.5%
  Benign buffer % helix: 8.2%
[3]; [6]
  Benign buffer [θ]222: 2300 deg · cm^2 · dmol^−1
Aspergillus flavous
  Minimal inhibitory concentration: >64 µg/mL
Aspergillus fumigatus
  Minimal inhibitory concentration: 16 µg/mL (≈ 7.86 µM)
Candida albicans
  Minimal inhibitory concentration: 4 µg/mL (≈ 1.97 µM)
Candida glabrata
  Minimal inhibitory concentration: 4 µg/mL (≈ 1.97 µM)
Candida tropicalis
  Minimal inhibitory concentration: 2 µg/mL (≈ 0.983 µM)
[1]
  MIC: 1.7 µM (≈ 3.46 µg/mL)
Enterobacter aerogenes
  MIC: 0.04 µM (≈ 0.0814 µg/mL)
Enterobacter cloacae
  MIC: 0.04 µM (≈ 0.0814 µg/mL)
Feilaoti citrobacter
  MIC: 0.3 µM (≈ 0.611 µg/mL)
Proteus vulgaris
  MIC: 5.3 µM (≈ 10.8 µg/mL)
Salmonella typhimurium; murium
  MIC: 0.3 µM (≈ 0.611 µg/mL)
Serratia marcescens
  MIC: 0.04 µM (≈ 0.0814 µg/mL)
Shigella sonnei
  MIC: 0.04 µM (≈ 0.0814 µg/mL)
Staphylococcus aureus
  MIC: 0.7 µM (≈ 1.42 µg/mL)
Staphylococcus aureus; [5]
  MIC: 2.7 µM (≈ 5.5 µg/mL)
[2]
  MIC: 0.7 µM (≈ 1.42 µg/mL)
Typhoid bacillus H901
  MIC: 0.3 µM (≈ 0.611 µg/mL)
Enterococcus faecium; [7]
  MIC: 5.3 µM (≈ 10.8 µg/mL)
Enterococcus faecium; Enterococcus faecium 06-1
  MIC: 5.3 µM (≈ 10.8 µg/mL)

## CC(=O)N[C@H](Cc1ccccc1)C(=O)N[C@H](CCCCN)C(=O)N[C@H](CCCCN)C(=O)N[C@H](Cc1ccccc1)C(=O)N[C@H](CCCCN)C(=O)N[C@H](CCCCN)C(=O)N[C@H](CC(C)C)C(=O)N[C@H](CC(C)C)C(=O)N[C@H](CO)C(=O)N[C@H](CCCCN)C(=O)N[C@H](CC(C)C)C(=O)N[C@H](Cc1c[nH]c2ccccc12)C(=O)N[C@H](CC(N)=O)C(=O)N[C@H](Cc1c[nH]c2ccccc12)C(=O)N[C@H](CCCCN)C(N)=O [PL-43] (Ac-[dF][dK][dK][dF][dK][dK][dL][dL][dS][dK][dL][dW][dN][dW][dK]-NH2; N-terminus and C-terminus assumed)
[3]
  50% TFE % helix: 96.3%
  Benign buffer % helix: 14.0%
Aspergillus flavous
  Minimal inhibitory concentration: >64 µg/mL
Aspergillus fumigatus
  Minimal inhibitory concentration: 64 µg/mL (≈ 31.4 µM)
Candida glabrata
  Minimal inhibitory concentration: 32 µg/mL (≈ 15.7 µM)
[1]
  MIC: 0.3 µM (≈ 0.611 µg/mL)
Enterobacter aerogenes
  MIC: 0.003 µM (≈ 0.00611 µg/mL)
Enterobacter cloacae
  MIC: 0.03 µM (≈ 0.0611 µg/mL)
Feilaoti citrobacter
  MIC: 0.3 µM (≈ 0.611 µg/mL)
Proteus vulgaris
  MIC: 0.3 µM (≈ 0.611 µg/mL)
Salmonella typhimurium; murium
  MIC: 0.3 µM (≈ 0.611 µg/mL)
Serratia marcescens
  MIC: 0.3 µM (≈ 0.611 µg/mL)

## Ac-FKKLKKLFSKLWNWK-NH2 [PL-13]
[3]
  50% TFE % helix: 80.7%
  Benign buffer % helix: 8.3%
[3]; [6]
  Benign buffer [θ]222: −2350 deg · cm^2 · dmol^−1
[3]; mean residue molar ellipticity at 222 nm, 25° C., buffer containing 50% TFE
  50% TFE [θ]222: −22750 deg · cm^2 · dmol^−1
Aspergillus flavous
  Minimal inhibitory concentration: >64 µg/mL
Aspergillus fumigatus
  Minimal inhibitory concentration: 32 µg/mL
Candida albicans
  Minimal inhibitory concentration: 8 µg/mL
[1]
  MIC: .3 µM
Enterobacter aerogenes
  MIC: 2.7 µM
Enterobacter cloacae
  MIC: 1.3 µM
Escherichia coli; 08-5 (ESBLs) Extended Spectyumβ-lactamase
  MIC: 0.7 µM
Feilaoti citrobacter
  MIC: 1.3 µM
Proteus vulgaris
  MIC: 0.3 µM
Pseudomonas aeruginosa
  MIC: 1.3 µM
Salmonella typhimurium; murium
  MIC: 1.3 µM
Serratia marcescens
  MIC: 0.3 µM
Shigella flexneri
  MIC: 0.7 µM
Shigella sonnei
  MIC: 0.7 µM
Staphylococcus aureus
  MIC: 0.7 µM
Staphylococcus aureus; [4]
  MIC: 2.7 µM
Staphylococcus aureus; [5]
  MIC: 2.7 µM
Typhoid bacillus H901
  MIC: 1.3 µM
Enterococcus faecium; [7]
  MIC: 5.3 µM
Enterococcus faecium; Enterococcus faecium 06-1
  MIC: 5.3 µM
